Measured values from US12435044B2, “Pyridazinone herbicides and pyridazinone intermediates used to prepare a herbicide” (FMC Corporation, priority 2018, dated 2025).

Tests used:
Assay in all cases: Test K pre-/postemergence, mixtures of Cpd. No. 20 with metribuzin or rimsulfuron
Type in all cases: in vivo
[1] = test system: common ragweed (AMBEL; Ambrosia artemisiifolia)
Excerpt: (§1) This test evaluated the effect of mixtures of Cpd. No. 20 with metribuzin or rimsulfuron on several plant species. Seeds of plant species selected from corn (ZEAMD; Zea mays, cv. ‘Pioneer 1184’), soybean (GLXMA; Glycine max, cv. Pioneer 35T58), giant foxtail (SETFA; Setaria faberi), palmer amaranth (AMAPA; Amaranthus palmeri), common waterhemp (AMATU; Amaranthus rudis), mare's tail (ERICA; Conyza canadensis), and common ragweed (AMBEL; Ambrosia artemisiifolia) were planted in pots containing Tama Silt Loam soil and treated preemergence with a directed soil spray using test chemicals formulated in a non-phytotoxic solvent mixture which included a surfactant.
(§2) At the same time, plants selected from these crop and weed species were planted in pots containing Redi-Earth® planting medium (Scotts Company, 14111 Scottslawn Road, Marysville, Ohio 43041) comprising spaghnum peat moss, vermiculite, wetting agent and starter nutrients and treated postemergence with test chemicals formulated in the same manner. Plants ranged in height from 2 to 10 cm and were in the one- to two-leaf stage for the postemergence treatment. Treated plants and untreated controls were maintained in a greenhouse for approximately 14-21 d, after which time all treated plants were compared to untreated controls and visually evaluated for injury. Plant response ratings, summarized in Tables K1 to K4, are based on a 0 to 100 scale where 0 is no effect and 100 is complete control. A dash (-) response means no test result. Test results are presented as a mean of 4 reps.

[2] = test system: common waterhemp (AMATU; Amaranthus rudis)
Excerpt: as §1, §2

[3] = test system: corn (ZEAMD; Zea mays, cv. ‘Pioneer 1184’)
Excerpt: as §1, §2

[4] = test system: giant foxtail (SETFA; Setaria faberi)
Excerpt: as §1, §2

[5] = test system: mare's tail (ERICA; Conyza canadensis)
Excerpt: as §1, §2

[6] = test system: palmer amaranth (AMAPA; Amaranthus palmeri)
Excerpt: as §1, §2

[7] = test system: soybean (GLXMA; Glycine max, cv. Pioneer 35T58)
Excerpt: as §1, §2

CSc1nnc(C(C)(C)C)c(=O)n1N [Metribuzin, metribuzin, reference compound]
AMBEL plant response rating, 0 to 100 scale ([1]; postemergence, 62 g a.i./ha): 55
AMBEL plant response rating, 0 to 100 scale ([1]; postemergence, 125 g a.i./ha): 62
AMBEL plant response rating, 0 to 100 scale ([1]; preemergence, 62 g a.i./ha): 40
AMBEL plant response rating, 0 to 100 scale ([1]; preemergence, 125 g a.i./ha): 100
AMATU plant response rating, 0 to 100 scale ([2]; postemergence, 62 g a.i./ha): 37
AMATU plant response rating, 0 to 100 scale ([2]; postemergence, 125 g a.i./ha): 82
AMATU plant response rating, 0 to 100 scale ([2]; preemergence, 62 g a.i./ha): 53
AMATU plant response rating, 0 to 100 scale ([2]; preemergence, 125 g a.i./ha): 86
ZEAMD plant response rating, 0 to 100 scale ([3]; postemergence, 62 g a.i./ha): 0
ZEAMD plant response rating, 0 to 100 scale ([3]; postemergence, 125 g a.i./ha): 10
ZEAMD plant response rating, 0 to 100 scale ([3]; preemergence, 62 g a.i./ha): 0
ZEAMD plant response rating, 0 to 100 scale ([3]; preemergence, 125 g a.i./ha): 0
SETFA plant response rating, 0 to 100 scale ([4]; postemergence, 62 g a.i./ha): 0
SETFA plant response rating, 0 to 100 scale ([4]; postemergence, 125 g a.i./ha): 10
SETFA plant response rating, 0 to 100 scale ([4]; preemergence, 62 g a.i./ha): 30
SETFA plant response rating, 0 to 100 scale ([4]; preemergence, 125 g a.i./ha): 80
ERICA plant response rating, 0 to 100 scale ([5]; postemergence, 62 g a.i./ha): 10
ERICA plant response rating, 0 to 100 scale ([5]; postemergence, 125 g a.i./ha): 13
ERICA plant response rating, 0 to 100 scale ([5]; preemergence, 62 g a.i./ha): 100
ERICA plant response rating, 0 to 100 scale ([5]; preemergence, 125 g a.i./ha): 100
AMAPA plant response rating, 0 to 100 scale ([6]; postemergence, 62 g a.i./ha): 35
AMAPA plant response rating, 0 to 100 scale ([6]; postemergence, 125 g a.i./ha): 47
AMAPA plant response rating, 0 to 100 scale ([6]; preemergence, 62 g a.i./ha): 78
AMAPA plant response rating, 0 to 100 scale ([6]; preemergence, 125 g a.i./ha): 70
GLXMA plant response rating, 0 to 100 scale ([7]; postemergence, 62 g a.i./ha): 33
GLXMA plant response rating, 0 to 100 scale ([7]; postemergence, 125 g a.i./ha): 53
GLXMA plant response rating, 0 to 100 scale ([7]; preemergence, 62 g a.i./ha): 0
GLXMA plant response rating, 0 to 100 scale ([7]; preemergence, 125 g a.i./ha): 0
